Where a SMILES comes first, the peptide text is derived from it. Bridges are numbered along the chain shown (N, C = ends).
Tests used:
[1] = tested on: methicillin-resistant Staphylococcus aureus (MRSA) (NCTC 12493); format: cell-based
Experimental: (§1) Antimicrobial activity of the synthetic peptides was assessed by determination of MIC/MBC on Escherichia coli (ATCC 11775), Staphylococcus aureus (ATCC 12600), Candida albicans (NCYC 1467) and methicillin-resistant Staphylococcus aureus (MRSA) (NCTC 12493) according to the previous report. Briefly, the test microorganism was inoculated in Mueller Hinton Broth (MHB) medium and incubated overnight at 37 °C. Then the subculture was performed until the optical density (OD) reached the logarithmic growth phase and diluted to 1 × 10^6 colony forming units (CFU)/mL for bacteria and 1 × 10^5 CFU/mL for fungus obtained. The synthetic peptides with the concentration from 1 to 512 µM were double diluted by PBS. Five replications of sterile control, vehicle control and growth control were set as 100 µL MHB/well, 100 µL 1% PBS with subculture solution/well and 100 µl subculture solution/well, respectively. The 96-well plate was incubated at 37 °C overnight. The absorbance of each well at 550 nm was measured by Synergy HT plate reader (Biotech, Minneapolis, MN, USA). The minimum bactericidal concentration was detected by sub-culturing treated samples onto Mueller-Hinton agar (MHA) plate for another eighteen hours at 37 °C.

[2] = tested on: Staphylococcus aureus (ATCC 12600); format: cell-based
Experimental: as §1

[3] = tested on: Candida albicans (NCYC 1467); format: cell-based
Experimental: as §1

[4] = tested on: Escherichia coli (ATCC 11775); format: cell-based
Experimental: as §1

chymotrypsin = chymotrypsin (Bos taurus, UniProt P00766); assay: biochemical
Experimental: Ten microliters of trypsin/chymotrypsin (Sigma Aldrich, Dorset, UK) working solution (0.1 µM in 1 mM HCl) was added into the wells of a black micro-titre plate with corresponding substrate and peptide replicates (0.1–100 µM) in 10 mM phosphate buffer (final volume 210 μL). Additionally, Phe-Pro-Arg- NHMec (Bachem, Cambridge, UK) and Succinyl-Ala-Ala-Pro-Phe-NHMec (Bachem, Cambridge, UK) were performed as substrates for trypsin and chymotrypsin, respectively. The fluorescence intensity of NHMec was monitored at 37 °C continuously for 30 min by a FLUOstar OPTIMA multi-well plate reader (BMG Labtech, Ortenberg, Germany) at wavelengths of 460 nm for emission and 395 nm for excitation.

HMEC-1 cells = format: cell-based, human; settings: 24 h; SD
Experimental: (§2) MTT (3-(4, 5-dimethylthiazol-2-yl)-2, 5-diphenyltetrazolium bromide) cell viability assay was performed to evaluate the cell proliferation inhibitory rate of synthetic peptides in a series of human cell lines: PC-3 (ATCC® CRL-1435™), H157 (RRID: CVCL_0463), H460 (ATCC® HTB-177™), H838 (ATCC® CRL-5844™), H23 (ATCC® CRL-5800™), MCF-7 (ATCC® HTB-22™), HCT116 (ATCC® CCL-247™), U251MG (ECACC-09063001) and HMEC-1 (ATCC® CRL-3243™) which was detailed in the previous report.

H460 cells = format: cell-based, human; settings: 24 h; SD
Experimental: as §2

MCF-7 cells = format: cell-based, human; settings: 24 h; SD
Experimental: as §2

PC-3 cells = format: cell-based, human; settings: 24 h; SD
Experimental: as §2

H23 cells = format: cell-based, human; settings: 24 h; SD
Experimental: as §2

H838 cells = format: cell-based, human; settings: 24 h; SD
Experimental: as §2

H157 cells = format: cell-based, human; settings: 24 h; SD
Experimental: as §2

SMILES	MBC, MRSA [1] [µM]	MIC, MRSA [1] [µM]	MBC, S. aureus [2]	MIC, S. aureus [2] [µM]	MBC, C. albicans [3]	MIC, C. albicans [3] [µM]	MBC, E. coli [4]	MIC, E. coli [4] [µM]	Ki (chymotrypsin) [µM]	IC50 (HMEC-1 cells) [µM]	IC50 (H460 cells) [µM]	IC50 (MCF-7 cells) [µM]	IC50 (PC-3 cells) [µM]	IC50 (H23 cells) [µM]	IC50 (H838 cells) [µM]	IC50 (H157 cells) [µM]
CC[C@H](C)[C@@H]1NC(=O)[C@H](CO)NC(=O)[C@H](Cc2ccccc2)NC(=O)[C@H]([C@@H](C)O)NC(=O)[C@H](Cc2c[nH]c3ccccc23)NC(=O)[C@@H](NC(=O)CNC(=O)[C@H](CCCNC(=N)N)NC(=O)[C@H](CC(C)C)NC(=O)[C@H](C)NC(=O)[C@@H](N)CO)CSSC[C@@H](C(=O)N[C@@H](CC(C)C)C(N)=O)NC(=O)[C@@H]2CCCN2C(=O)[C@H](CCCCN)NC(=O)[C@@H]2CCCN2C(=O)[C@@H]2CCCN2C1=O [F-SL] (H-SALRGCWTFSIPPKPCL-NH2; disulfide 6-16)	>512	>512	>512 µM	>512	>512 µM	>512	>512 µM	>512	0.309	574 ± 9.41	66 ± 2.64	202 ± 10.6	159 ± 6.44	79.1 ± 6.41	59.7 ± 2.72	101 ± 1.74
CC[C@H](C)[C@@H]1NC(=O)[C@H](CO)NC(=O)[C@H](CCCCN)NC(=O)[C@H]([C@@H](C)O)NC(=O)[C@H](Cc2c[nH]c3ccccc23)NC(=O)[C@@H](NC(=O)CNC(=O)[C@H](CCCNC(=N)N)NC(=O)[C@H](CC(C)C)NC(=O)[C@H](C)NC(=O)[C@H](C)N)CSSC[C@@H](C(=O)N[C@@H](CCCCN)C(N)=O)NC(=O)[C@@H]2CCCN2C(=O)[C@H](CCCCN)NC(=O)[C@@H]2CCCN2C(=O)[C@@H]2CCCN2C1=O [K-SL] (H-AALRGCWTKSIPPKPCK-NH2; disulfide 6-16)	>512	>512	64/64 μM	–	64/64 μM	–	128/128 μM	–	–	–	–	–	–	–	–	–
CC(C)C[C@H](NC(=O)[C@@H]1CSSC[C@H](NC(=O)CNC(=O)[C@H](CCCNC(=N)N)NC(=O)[C@H](CC(C)C)NC(=O)[C@H](C)NC(=O)[C@@H](N)CO)C(=O)N[C@@H](Cc2c[nH]c3ccccc23)C(=O)N[C@@H]([C@@H](C)O)C(=O)N[C@@H](CCCCN)C(=O)N[C@@H](CO)C(=O)N[C@@H](Cc2ccc(O)cc2)C(=O)N2CCC[C@H]2C(=O)N2CCC[C@H]2C(=O)N[C@@H](CCCCN)C(=O)N2CCC[C@H]2C(=O)N1)C(N)=O [SL-BBI] (H-SALRGCWTKSYPPKPCL-NH2; disulfide 6-16)	>512	>512	256 µM	256	256 µM	256	128/128 μM	–	–	–	–	–	–	–	–	–

— PMC7565067, “Identification and Target-Modification of SL-BBI: A Novel Bowman–Birk Type Trypsin Inhibitor from Sylvirana latouchii” (Biomolecules, 2020)
